Read-outs that look alike come from different tables or passages of the source.
Experiments:
T. gondii = details: mouse, in vivo
[1] = test system: Leishmania major clone V1 (MHOM/IL/80/Friedlin)
Description: (B) Parasite burden. Quantification of parasite outgrowth from titrations of ear tissue lysates was performed at the indicated times. Values shown are means+SE of 6 mice/group. […] The effect of IDO inhibition during cutaneous leishmaniasis on antigen-specific cytokine production. […] (F) IL-10. Cytokines were quantified by ELISA in the supernatants of soluble L. major antigen-stimulated cells isolated from draining lymph nodes 4 wk after infection. Values shown are means+SE of 6 mice/group. *P<0.05.
Lesion size was quantified with a vernier caliper. Parasite burden was quantified by determining the highest dilution of ear tissue lysates in which promastigote outgrowth could be detected out after 7 days of incubation. […] Cells isolated from lymph nodes draining lesions were incubated with L major promastigote lysates.
Cytokines were quantified by ELISA in culture supernatants harvested 48 h later.

visceral leishmaniasis = assay: Treatment of visceral leishmaniasis in patients with oral 1-MT; assay type: in vivo
Source text: Patients present with symptoms of fever and organomegaly of long standing that is unresponsive to standard treatment, possibly with attendant anemia and pancytopenia, with a history of travel in an area in which leishmaniasis is known to be endemic. Laboratory tests confirm a diagnosis of visceral […]. […] Patients present with symptoms of fever and organomegaly of long standing that is unresponsive to standard treatment, possibly with attendant anemia and pancytopenia, with a history of travel in an area in which leishmaniasis is known to be endemic. Laboratory tests confirm a diagnosis of visceral leishmaniasis. […] Patients present with symptoms of fever and organomegaly of long standing that is unresponsive to standard treatment, possibly with attendant anemia and pancytopenia, with a history of travel in an area in which leishmaniasis is known to be endemic. Laboratory tests confirm a diagnosis of visceral leishmaniasis.

[2] = L. major antigen-stimulated, ELISA, 4 wk after infection, vs untreated
[3] = early phase of parasite clearance (4 wk after infection), CCA assay

Source text for T. gondii (ME49 strain): (B) Parasite burden. […] (C) Serum IFN-γ. (D) Serum TNF-α. (E) Serum IL-10. Systemic cytokine production was quantified by the CCA assay 30 d after infection. […] Values shown are means±SE of 8 mice/group. (F) Kinetic analysis of parasite burden in the experiment depicted in FIG. 1A. […] (G) IL-12/23p40 mRNA. (H) IFN-γ mRNA. (I) TNF-α mRNA. (J) IL-10 mRNA. Cytokine mRNA was quantified in brain by qRT-PCR 30 d after infection.
To evaluate parasite load, infected animals were killed and the number of T. gondii cysts present in brain homogenates from these animals were counted.

Cn1cc(C[C@H](N)C(=O)O)c2ccccc21 [1-MT, 1-methyl tryptophan]
disease course and mortality (T. gondii): reactivation of disease and increased mortality
local and systemic production of inflammatory mediators (T. gondii): relatively little differences
serum levels of IL-4 ([1]; 1-MT treated vs untreated infected mice, data not shown): no differences
IFN-γ protein produced by cells from draining lymph nodes [1, 2]: Relatively more
IL-10 produced by T cells from draining lymph nodes [1, 2]: relatively less
serum IFN-γ [1, 3]: significantly increased
serum IL-10 concentrations [1, 3]: decreased
lesional size ([1]; first weeks after infection while lesion size increasing, vs untreated): No overt differences
lesional size ([1]; post apex period, weeks 4-12 post infection, vs untreated): significantly smaller
parasite burden ([1]; weeks 4 through 12 post infection, vs controls, FIG. 4B): significantly lower
amelioration of symptoms of visceral leishmaniasis (visceral leishmaniasis; oral 1-MT 12.5-75 mg/kg/day with a drug such as amphotericin at less than usual doses, Example 4): equivalent to that achieved with standard drug therapy alone
amelioration of symptoms of visceral leishmaniasis (visceral leishmaniasis; oral 1-MT 12.5-75 mg/kg/day with a drug such as amphotericin at normal doses, Example 3): more rapid than that observed with standard drug therapy alone
symptoms of visceral leishmaniasis (visceral leishmaniasis; oral 1-MT approximately 12.5-75 mg/kg/day alone, Example 2): Amelioration of symptoms is observed
serum levels of IFN-γ, TNF-α and IL-10 (T. gondii (ME49 strain); CCA assay, 30 d after infection, vs control): No significant alteration
mortality (T. gondii (ME49 strain); T. gondii-infected mice given 1-MT, FIG. 1A): 100%
mRNA expression of IL-12/23p40, IFN-γ, TNF-α and IL-10 in the central nervous system (T. gondii (ME49 strain); qRT-PCR in brain, 30 d after infection, vs control): lack of biologically important changes
mortality (T. gondii (ME49 strain); second independent experiment, not pictured, 1-MT vs control): 100%

From patent US20100261774A1, “Methods for the modulation of Leishmania major infection in mammals” (Children's Hospital Medical Center, priority 2009, published 2010)
